These results are taken from paper PMC5292237 (Bioorganic & medicinal chemistry, 2016).

Assay [1] relates to LSD1. Conditions: cited from earlier work.
The target in assay [2] is human recombinant LSD1 (Homo sapiens, UniProt O60341). The experiment in a line: Labeling of human recombinant LSD1 after pre-treatment with LSD1 inhibitors. It is filed as biochemical.

For `N[C@@H]1C[C@H]1c1ccccc1` (relative stereo) [TCP, trans-2-phenylcyclopropyl-1-amine], in assay [1], the “reported potency over LSD1” value is 20 to 400 µM.
For `C=Cc1ccc(C(=O)Nc2ccc([C@@H]3C[C@H]3N)cc2)cc1.Cl` (relative stereo) [compound 12, N-(4-(trans-2-aminocyclopropyl)phenyl)-4-vinyl benzamide hydrochloride], the “effect of inhibitor pre-treatment on LSD1 labeling by probe 17” value in assay [2] (compound 12 1 mM or TCP 1.5 mM, 30 min pre-incubation, probe 17 40 µM, 2 min UV) was “no reduction in protein labeling”. For the same compound, the “effect of inhibitor pre-treatment on LSD1 labeling by probe 18” value in assay [2] (compound 12 pre-incubation 30 min, probe 18 10 µM, 2 min) was “no clear difference”.
